Measurements from ChEMBL document CHEMBL1147059, “Replication and homologous recombination repair regulate DNA double-strand break formation by the antitumor alkylator ecteinascidin 743” (Proc Natl Acad Sci U S A, 2007).
Active and inactive are the calls of the source. No cut-off for these calls is given here.

Assays:
[1] = Cytotoxicity in homologous recombination repair XRCC3 gene deficient Chinese hamster irs1SF cells assessed as cell viability by MTT assay relative to wild type cells; type: functional, Cricetulus griseus
[2] = Induction of chromosome damage in BRCA2 deficient Chinese hamster V-C8 cells assessed as number of damaged chromosomes per 100 metaphases at 5 nM for 1 hr followed by post incubation in drug-free media for 24 hrs; type: functional, Cricetulus griseus
[3] = test system: HeLa; assay: Reversal of induction of DNA double strand breaks in human HeLa cells at >50 nM in presence of aphidicolin after 1 hr by neutral comet assay; type: functional, cell-based
[4] = test system: V79; assay: Induction of chromosome damage in Chinese hamster V79 cells assessed as number of radials per 100 metaphases at 50 nM for 1 hr followed by post incubation in drug-free media for 24 hrs; type: functional, Cricetulus griseus
[5] = test system: HeLa; assay: Induction of DNA double strand breaks in human HeLa cells after 1 hr by neutral comet assay; type: functional, cell-based
[6] = test system: V79; assay: Induction of chromosome damage in Chinese hamster V79 cells assessed as number of radials per 100 metaphases at 10 nM for 1 hr followed by post incubation in drug-free media for 24 hrs; type: functional, Cricetulus griseus
[7] = Induction of chromosome damage in BRCA2 deficient Chinese hamster V-C8 cells assessed as number of radials per 100 metaphases at 1 nM for 1 hr followed by post incubation in drug-free media for 24 hrs; type: functional, Cricetulus griseus
[8] = Induction of chromosome damage in BRCA2 deficient Chinese hamster V-C8 cells assessed as number of damaged chromosomes per 100 metaphases at 2 nM for 1 hr followed by post incubation in drug-free media for 24 hrs; type: functional, Cricetulus griseus
[9] = Induction of chromosome damage in BRCA2 deficient Chinese hamster V-C8 cells assessed as number of radials per 100 metaphases at 5 nM for 1 hr followed by post incubation in drug-free media for 24 hrs; type: functional, Cricetulus griseus
[10] = test system: V79; assay: Induction of chromosome damage in Chinese hamster V79 cells assessed as number of damaged chromosomes per 100 metaphases at 10 nM for 1 hr followed by post incubation in drug-free media for 24 hrs; type: functional, Cricetulus griseus
[11] = test system: Lymphocyte; assay: Induction of DNA double strand breaks in nonproliferating human lymphocytes at 100 nM by alkaline comet assay; type: functional, cell-based
[12] = test system: HeLa; assay: Induction of DNA double strand breaks in human HeLa cells assessed as phosphorylated histone H2AX formation after 1 hr by immunostaining; type: functional, cell-based
[13] = test system: V79; assay: Induction of chromosome damage in Chinese hamster V79 cells assessed as number of radials per 100 metaphases at 100 nM for 1 hr followed by post incubation in drug-free media for 24 hrs; type: functional, Cricetulus griseus
[14] = test system: HeLa; assay: Reduction of DNA synthesis in human HeLa cells at 30 nM after 1 hrs […]; type: functional; set-up: scale not given: the % may be the effect or the level left
[15] = test system: CHO-AA8; assay: Effect on cell cycle progression in Chinese hamster AA8 cells assessed as increase in accumulation at G2/M phase at 6 nM for 1 hr followed by post incubation in drug-free media for 6 hrs relative to control; type: functional, cell-based; conditions: Cricetulus griseus
[16] = Cytotoxicity in homologous recombination repair RAD51C gene deficient Chinese hamster CL-V4B cells assessed as cell viability by MTT assay relative to wild type cells; type: functional, Cricetulus griseus
[17] = test system: CHO-AA8; assay: Induction of DNA double strand breaks in Chinese hamster AA8 cells assessed as phosphorylated histone H2AX formation after 1 hr by immunostaining; type: functional, cell-based; conditions: Cricetulus griseus
[18] = Induction of chromosome damage in BRCA2 deficient Chinese hamster V-C8 cells assessed as number of radials per 100 metaphases at 10 nM for 1 hr followed by post incubation in drug-free media for 24 hrs; type: functional, Cricetulus griseus
[19] = test system: CHO-AA8; assay: Induction of DNA double strand breaks in Chinese hamster AA8 cells at 100 nM after 1 hr by comet assay; type: functional, Cricetulus griseus
[20] = Induction of chromosome damage in BRCA2 deficient Chinese hamster V-C8 cells assessed as number of radials per 100 metaphases at 2 nM for 1 hr followed by post incubation in drug-free media for 24 hrs; type: cell-based, Cricetulus griseus; conditions: v-c8, 1 h, 0.002 µM
[21] = Induction of chromosome damage in BRCA2 deficient Chinese hamster V-C8 cells assessed as number of damaged chromosomes per 100 metaphases at 100 nM for 1 hr followed by post incubation in drug-free media for 24 hrs; type: functional, Cricetulus griseus
[22] = test system: HeLa; assay: Reduction of cellular viability in human HeLa cells at 20 nM after 1 hr by MTT assay; type: functional
[23] = test system: CCRF-CEM; assay: Induction of DNA double strand breaks in human CEM cells at 100 nM by alkaline comet assay; type: functional, cell-based
[24] = test system: CHO-AA8; assay: Effect on cell cycle progression in Chinese hamster AA8 cells assessed as accumulation at S phase at 140 nM; type: functional, cell-based; conditions: Cricetulus griseus
[25] = Induction of chromosome damage in BRCA2 deficient Chinese hamster V-C8 cells assessed as number of damaged chromosomes per 100 metaphases at 1 nM for 1 hr followed by post incubation in drug-free media for 24 hrs; type: functional, Cricetulus griseus
[26] = test system: CCRF-CEM; assay: Induction of DNA double strand breaks in human CEM cells assessed as phosphorylated histone H2AX formation after 1 hr by immunostaining; type: functional, cell-based
[27] = Cytotoxicity in homologous recombination repair XRCC2 gene deficient Chinese hamster irs1 cells assessed as cell viability by MTT assay relative to wild type cells; type: functional, Cricetulus griseus
[28] = Effect on cell cycle progression in Chinese hamster homologous recombination repair XRCC3 gene deficient irs1SF cells assessed as increase in accumulation at G2/M phase at 6 nM for 1 hr followed by post incubation in drug-free media for 24 hrs relative to control; type: functional, Cricetulus griseus
[29] = Effect on cell cycle progression in Chinese hamster homologous recombination repair XRCC3 gene deficient irs1SF cells assessed as increase in accumulation at S phase at 6 nM for 1 hr followed by post incubation in drug-free media for 6 hrs relative to control; type: functional, Cricetulus griseus
[30] = Cytotoxicity in homologous recombination repair BRCA2 gene deficient Chinese hamster V-C8 cells assessed as cell viability by MTT assay relative to wild type cells; type: functional, Cricetulus griseus
[31] = test system: CHO-AA8; assay: Effect on cell cycle distribution in Chinese hamster AA8 cells assessed as isotoxic dose after 1 hr; type: functional, Cricetulus griseus
[32] = Induction of DNA double strand breaks in Chinese hamster homologous recombination repair XRCC3 gene deficient irs1SF cells at 100 nM after 1 hr by comet assay; type: functional, Cricetulus griseus
[33] = test system: V79; assay: Induction of chromosome damage in Chinese hamster V79 cells assessed as number of damaged chromosomes per 100 metaphases at 50 nM for 1 hr followed by post incubation in drug-free media for 24 hrs; type: functional, Cricetulus griseus
[34] = test system: HeLa; assay: Induction of DNA double strand breaks in human S-phase synchronized HeLa cells by alkaline comet assay; type: functional, cell-based
[35] = Effect on cell cycle distribution in Chinese hamster homologous recombination repair XRCC3 gene deficient irs1SF cells after 1 hr followed by post incubation in drug-free media; type: functional, Cricetulus griseus
[36] = test system: CHO-AA8; assay: Effect on cell cycle progression in Chinese hamster AA8 cells assessed as accumulation at G2 phase at 140 nM; type: functional, cell-based; conditions: Cricetulus griseus
[37] = test system: V79; assay: Induction of chromosome damage in Chinese hamster V79 cells assessed as number of damaged chromosomes per 100 metaphases at 100 nM for 1 hr followed by post incubation in drug-free media for 24 hrs; type: functional, Cricetulus griseus

Q: With `COc1cc2c(cc1O)CCN[C@]21CS[C@@H]2c3c(OC(C)=O)c(C)c4c(c3[C@H](COC1=O)N1[C@@H]2[C@H]2c3c(cc(C)c(OC)c3O)C[C@@H]([C@@H]1O)N2C)OCO4` [TRABECTEDIN] as the compound, how does the Fold change [1] read?
A: 23

Q: And the Activity [2]?
A: 90

Q: And the Activity [3]?
A: Active

Q: What about the Activity [4] of the same compound?
A: 27

Q: And the Activity [5]?
A: Dose-dependent effect

Q: What about the Activity [6] of the same compound?
A: 0

Q: What about the Activity [7] of the same compound?
A: 1

Q: What about the Activity [8] of the same compound?
A: 42

Q: What about the Activity [9] of the same compound?
A: 2

Q: What about the Activity [10] of the same compound?
A: 1

Q: What about the Activity [11] of the same compound?
A: inactive

Q: What about the Activity [12] of the same compound?
A: Active

Q: And the Activity [13]?
A: 24

Q: And the Activity [14]?
A: 50%

Q: What about the Activity [15] of the same compound?
A: inactive

Q: What about the Fold change [16] of the same compound?
A: 8

Q: What about the Activity [17] of the same compound?
A: Active

Q: And the Activity [18]?
A: 3

Q: What about the Activity [19] of the same compound?
A: 20%

Q: And the Activity [20]?
A: 1

Q: And the Activity [21]?
A: 100

Q: What about the Activity [22] of the same compound?
A: 50%

Q: And the Activity [23]?
A: Active

Q: What about the Activity [24] of the same compound?
A: Active

Q: What about the Activity [25] of the same compound?
A: 14

Q: What about the Activity [26] of the same compound?
A: Active

Q: And the Fold change [27]?
A: 8

Q: What about the Activity [28] of the same compound?
A: 35%

Q: What about the Activity [29] of the same compound?
A: 65%

Q: What about the Fold change [30] of the same compound?
A: 18

Q: And the Activity [31]?
A: 140 nM

Q: What about the Activity [32] of the same compound?
A: 19%

Q: What about the Activity [33] of the same compound?
A: 50

Q: And the Activity [34]?
A: Toxic

Q: What about the IC50 [35] of the same compound?
A: 6 nM

Q: What about the Activity [36] of the same compound?
A: Active

Q: And the Activity [37]?
A: 57
